Results: patent US9096608B2, “Pharmaceutically active pyrazolo-triazine derivatives” (LEAD DISCOVERY CENTER GMBH, priority 2012, dated 2015)

Key:
Type in all cases: biochemical
CDK9/Cyclin T1 = target: T1, CDK9/Cyclin T1 (Homo sapiens, UniProt P50750); assay: CDK9 Enzymatic Activity Assay (Lance Kinase Activity Assay, FRET); details: Table 5B; symbols per IC50 ranges of b615
T1 construct: purchased Invitrogen
Procedure, shortened: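 TR-FRET detection of ULight-MBP substrate phosphorylation by CDK9/cyclin T1 using a Eu-anti-phospho-MBP antibody, in 50 mM HEPES pH 7.5, 10 mM MgCl2, 1 mM EGTA, 2 mM DTT, 0.01% Tween-20. Kinase reaction 1 h at room temperature, then EDTA detection buffer for 1 h before reading.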

CDK7/CycH/Mat1 = target: T2, CDK7/CycH/Mat1 (Homo sapiens, UniProt P50613); assay: CDK7 Enzymatic Activity Assay (Lance Kinase Activity Assay, FRET); details: Table 5A; 25 μM ATP final; read-out: CDK7: IC50 [mM] for CDK7 inhibition (the above defined ranges apply)
T2 construct: purchased Carna
Procedure, shortened: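 TR-FRET (LANCE) kinase assay with ULight-MBP peptide substrate and Eu-labelled anti-phospho antibody; compounds in 8-point 1:3 series in HEPES 50 mM pH 7.5, MgCl2 10 mM, EGTA 1 mM, DTT 2 mM, 0.01% Tween-20.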

CDK2/CycA = target: T3, CDK2/CycA (Homo sapiens, UniProt P24941); assay: CDK2 Enzymatic Activity Assay (Lance Kinase Activity Assay, FRET); details: Table 5B; symbols per IC50 ranges of b615
T3 construct: purchased Proqinase
Procedure, shortened: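 Compounds serially diluted 1:3 over 8 steps, run with CDK2/CycA, ULight-MBP substrate and ATP in HEPES pH 7.5 buffer for 1 h at room temperature. LANCE TR-FRET detection with Eu-anti-phospho-MBP after EDTA stop; IC50 from sigmoidal dose-response curves.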

T2 sequence (P50613 whole entry): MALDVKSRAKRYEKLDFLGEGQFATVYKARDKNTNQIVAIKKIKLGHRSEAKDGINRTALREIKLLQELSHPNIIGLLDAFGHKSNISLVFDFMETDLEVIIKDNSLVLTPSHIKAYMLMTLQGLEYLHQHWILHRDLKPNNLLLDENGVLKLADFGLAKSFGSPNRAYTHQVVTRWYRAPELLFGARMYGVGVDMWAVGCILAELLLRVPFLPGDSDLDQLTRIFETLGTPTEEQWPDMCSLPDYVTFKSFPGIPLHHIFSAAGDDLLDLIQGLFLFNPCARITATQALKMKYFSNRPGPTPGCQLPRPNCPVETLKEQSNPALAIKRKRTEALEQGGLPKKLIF
T2 sequence (P51946 whole entry partner): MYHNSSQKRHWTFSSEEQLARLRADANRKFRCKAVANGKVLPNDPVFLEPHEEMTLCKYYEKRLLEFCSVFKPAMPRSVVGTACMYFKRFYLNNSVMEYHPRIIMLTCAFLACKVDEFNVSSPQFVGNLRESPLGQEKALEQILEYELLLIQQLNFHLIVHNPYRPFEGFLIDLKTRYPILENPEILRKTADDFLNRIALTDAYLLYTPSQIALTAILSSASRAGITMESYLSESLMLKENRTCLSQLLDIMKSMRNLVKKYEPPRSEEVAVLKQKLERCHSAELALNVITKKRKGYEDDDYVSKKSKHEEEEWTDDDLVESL
T2 sequence (P51948 whole entry partner): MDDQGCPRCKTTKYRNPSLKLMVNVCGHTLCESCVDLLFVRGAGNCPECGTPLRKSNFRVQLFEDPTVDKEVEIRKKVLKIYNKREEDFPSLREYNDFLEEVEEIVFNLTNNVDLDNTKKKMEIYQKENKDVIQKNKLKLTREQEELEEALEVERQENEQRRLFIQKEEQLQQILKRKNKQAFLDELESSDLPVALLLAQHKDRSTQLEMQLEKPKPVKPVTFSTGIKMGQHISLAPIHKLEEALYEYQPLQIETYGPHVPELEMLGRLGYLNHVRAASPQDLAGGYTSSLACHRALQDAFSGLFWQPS
T1 sequence (P50750 whole entry): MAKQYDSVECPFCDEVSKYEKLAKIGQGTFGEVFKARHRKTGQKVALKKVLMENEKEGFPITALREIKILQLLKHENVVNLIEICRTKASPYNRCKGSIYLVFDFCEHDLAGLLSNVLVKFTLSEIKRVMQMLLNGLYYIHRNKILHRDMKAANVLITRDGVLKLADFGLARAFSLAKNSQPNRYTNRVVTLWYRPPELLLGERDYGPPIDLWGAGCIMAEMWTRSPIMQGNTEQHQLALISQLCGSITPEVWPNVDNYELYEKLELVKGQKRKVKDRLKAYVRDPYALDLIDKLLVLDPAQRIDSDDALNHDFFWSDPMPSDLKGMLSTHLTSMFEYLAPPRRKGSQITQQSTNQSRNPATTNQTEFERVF
T1 sequence (O60563 whole entry partner): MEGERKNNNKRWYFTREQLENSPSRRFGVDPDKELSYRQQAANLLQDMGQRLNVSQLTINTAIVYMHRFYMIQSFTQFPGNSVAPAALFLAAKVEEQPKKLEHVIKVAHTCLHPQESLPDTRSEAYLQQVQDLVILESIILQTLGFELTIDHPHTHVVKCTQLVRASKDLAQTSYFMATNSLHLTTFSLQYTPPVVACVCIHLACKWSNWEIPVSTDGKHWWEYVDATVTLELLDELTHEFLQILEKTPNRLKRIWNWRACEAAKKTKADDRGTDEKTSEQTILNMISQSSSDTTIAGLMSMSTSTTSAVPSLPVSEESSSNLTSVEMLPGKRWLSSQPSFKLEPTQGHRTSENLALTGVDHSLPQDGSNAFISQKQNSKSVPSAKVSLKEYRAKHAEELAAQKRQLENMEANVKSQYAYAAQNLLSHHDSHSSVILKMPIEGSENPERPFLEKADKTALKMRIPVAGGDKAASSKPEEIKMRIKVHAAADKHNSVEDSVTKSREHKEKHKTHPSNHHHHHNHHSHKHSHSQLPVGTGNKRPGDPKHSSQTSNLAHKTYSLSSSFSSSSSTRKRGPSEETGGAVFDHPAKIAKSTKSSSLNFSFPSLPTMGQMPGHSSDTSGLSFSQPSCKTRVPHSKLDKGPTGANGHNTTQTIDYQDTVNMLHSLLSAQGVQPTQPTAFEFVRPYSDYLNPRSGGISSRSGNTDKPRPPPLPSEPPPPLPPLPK

SMILES | CDK9: Selectivity of CDK7 inhibition over CDK9 inhibition [fold] (CDK9/Cyclin T1) | IC50 (CDK7/CycH/Mat1) | CDK2 IC50 range class (CDK2/CycA)
CC(C)c1cnn2c(NC(C)c3ccccc3C3CC3)nc(O[C@@H]3CCCNC3)nc12 (stereo partly drawn) [(VII-ao), N-(1-(2-cyclopropyl-phenyl)ethyl)-8-isopropyl-2-((R)-piperidin-3-yloxy)pyrazolo[1,5-a][1,3,5]triazin-4-amine] | +++ (IC50>2500 nM) | > 100 nM | +++ (IC50>2500 nM)
CC(C)c1cnn2c(N[C@@H](C)c3cccc(OC(F)(F)F)c3)nc(O[C@@H]3CCCNC3)nc12 [(VII-ay), 8-isopropyl-2-((R)-piperidin-3-yloxy)-N-((S)-1-(3-(trifluoro-methoxy)phenyl)ethyl)pyrazolo[1,5-a][1,3,5]triazin-4-amine] | +++ (IC50>2500 nM) | 10 to 30 nM | +++ (IC50>2500 nM)
CC(C)c1cnn2c(NC(C)c3ccccc3N3CCCC3)nc(O[C@@H]3CCCNC3)nc12 (stereo partly drawn) [(VII-ap), 8-isopropyl-2-((R)-piperidin-3-yloxy)-N-(1-(2-(pyrrolidin-1-yl)phenyl)ethyl)pyrazolo[1,5-a][1,3,5]triazin-4-amine] | +++ (IC50>2500 nM) | > 100 nM | +++ (IC50>2500 nM)
COc1cccc([C@H](C)Nc2nc(CN(C)CC3CNC3)nc3c(C(C)C)cnn23)c1 [(XXIX-3), (S)-2-(((azetidin-3-ylmethyl)(methyl)amino)methyl)-8-isopropyl-N-(1-(3-methoxyphenyl)ethyl)pyrazolo[1,5-a][1,3,5]triazin-4-amine] | +++ (IC50>2500 nM) | > 100 nM | +++ (IC50>2500 nM)
COc1cccc([C@H](C)Nc2nc(NCCCN)nc3c(C(C)C)cnn23)c1 [(VIII-t), (S)-N2-(3-aminopropyl)-8-isopropyl-N4-(1-(3-methoxyphenyl)ethyl)pyrazolo[1,5-a][1,3,5]triazine-2,4-diamine] | +++ (IC50>2500 nM) | 30 to 100 nM | +++ (IC50>2500 nM)
COc1cccc([C@H](C)Nc2nc(NCC3CCNC3)nc3c(C(C)C)cnn23)c1 (stereo partly drawn) [(VIII-w), 8-isopropyl-N4-((S)-1-(3-methoxyphenyl)ethyl)-N2-(pyrrolidin-3-ylmethyl)pyrazolo[1,5-a][1,3,5]triazine-2,4-diamine] | +++ (IC50>2500 nM) | 30 to 100 nM | +++ (IC50>2500 nM)
COc1cccc([C@H](C)Nc2nc(N3CCCC(N)C3)nc3c(C(C)C)cnn23)c1 (stereo partly drawn) [(VIII-p), 2-(3-aminopiperidin-1-yl)-8-isopropyl-N-((S)-1-(3-methoxyphenyl)ethyl)pyrazolo[1,5-a][1,3,5]triazin-4-amine] | +++ (IC50>2500 nM) | > 100 nM | +++ (IC50>2500 nM)
COc1cccc([C@H](C)Nc2nc(NCCN)nc3c(C(C)C)cnn23)c1 [(VIII-V), (S)-N2-(2-aminoethyl)-8-isopropyl-N4-(1-(3-methoxyphenyl)ethyl)pyrazolo[1,5-a][1,3,5]triazine-2,4-diamine] | +++ (IC50>2500 nM) | > 100 nM | +++ (IC50>2500 nM)
COc1cccc([C@H](C)Nc2nc(SC3CCNCC3)nc3c(C(C)C)cnn23)c1 [(X-e), (S)-8-isopropyl-N-(1-(3-methoxyphenyl)ethyl)-2-(piperidin-4-ylthio)pyrazolo[1,5-a][1,3,5]triazin-4-amine] | +++ (IC50>2500 nM) | > 100 nM | +++ (IC50>2500 nM)
COc1cccc([C@H](C)Nc2nc(OC3COC4(CCNCC4)C3)nc3c(C(C)C)cnn23)c1 (stereo partly drawn) [(VII-bx), 2-(1-oxa-8-azaspiro[4.5]decan-3-yloxy)-8-isopropyl-N-((S)-1-(3-methoxyphenyl)ethyl)pyrazolo[1,5-a][1,3,5]triazin-4-amine] | +++ (IC50>2500 nM) | < 10 nM | +++ (IC50>2500 nM)
COc1cc(OC)cc(C(C)Nc2nc(O[C@@H]3CCCNC3)nc3c(C(C)C)cnn23)c1 (stereo partly drawn) [(VII-bg), N-(1-(3,5-dimethoxy-phenyl)ethyl)-8-isopropyl-2-((R)-piperidin-3-yloxy)pyrazolo[1,5-a][1,3,5]triazin-4-amine] | +++ (IC50>2500 nM) | > 100 nM | +++ (IC50>2500 nM)
CC(C)c1cnn2c(NC(C)c3ccc4[nH]ncc4c3)nc(O[C@@H]3CCCNC3)nc12 (stereo partly drawn) [(VII-ca), N-(1-(1H-indazol-5-yl)ethyl)-8-isopropyl-2-((R)-piperidin-3-yloxy)pyrazolo[1,5-a][1,3,5]triazin-4-amine] | +++ (IC50>2500 nM) | < 10 nM | +++ (IC50>2500 nM)
COc1cccc([C@H](C)Nc2nc(CN3CC(N4CCCC4=O)C3)nc3c(C(C)C)cnn23)c1 [(XXIX-10), (S)-1-(1-((8-isopropyl-4-((1-(3-methoxyphenyl)ethyl)amino)pyrazolo[1,5-a][1,3,5]triazin-2-yl)methyl)azetidin-3-yl)pyrrolidin-2-one] | +++ (IC50>2500 nM) | > 100 nM | +++ (IC50>2500 nM)
COC(=O)C(CN)Nc1nc(N[C@@H](C)c2cccc(OC)c2)n2ncc(C(C)C)c2n1 (stereo partly drawn) [(VIII-y), methyl 3-amino-2-((8-isopropyl-4-(((S)-1-(3-methoxyphenyl)ethyl)amino)pyrazolo[1,5-a][1,3,5]triazin-2-yl)amino)propanoate] | +++ (IC50>2500 nM) | > 100 nM | +++ (IC50>2500 nM)
CC(C)c1cnn2c(N[C@@H](C)c3ccccc3Br)nc(O[C@@H]3CCCNC3)nc12 [(VII-be), N-((S)-1-(2-bromophenyl)ethyl)-8-isopropyl-2-((R)-piperidin-3-yloxy)pyrazolo[1,5-a][1,3,5]triazin-4-amine] | +++ (IC50>2500 nM) | < 10 nM | +++ (IC50>2500 nM)
CC(C)COc1cccc([C@H](C)Nc2nc(O[C@@H]3CCCNC3)nc3c(C(C)C)cnn23)c1 [(VII-bb), N-((S)-1-(3-isobutoxyphenyl)ethyl)-8-isopropyl-2-((R)-piperidin-3-yloxy)pyrazolo[1,5-a][1,3,5]triazin-4-amine] | +++ (IC50>2500 nM) | 30 to 100 nM | +++ (IC50>2500 nM)
COc1cc(F)ccc1[C@H](C)Nc1nc(O[C@@H]2CCCNC2)nc2c(C(C)C)cnn12 [(VII-az), N-((S)-1-(4-fluoro-2-methoxyphenyl)ethyl)-8-isopropyl-2-((R)-piperidin-3-yloxy)pyrazolo[1,5-a][1,3,5]triazin-4-amine] | +++ (IC50>2500 nM) | 30 to 100 nM | +++ (IC50>2500 nM)
COc1cccc([C@H](C)Nc2nc(N(C)CCCN3CCCCC3)nc3c(C(C)C)cnn23)c1 [(VIII-X), (S)-8-isopropyl-N4-(1-(3-methoxyphenyl)ethyl)-N2-methyl-N2-(3-(piperidin-1-yl)propyl)pyrazolo(1,5-a][1,3,5]triazine-2,4-diamine] | +++ (IC50>2500 nM) | > 100 nM | +++ (IC50>2500 nM)
